The values that follow come from publication PMC11219936, “Development of radioiodine-labeled mequitazine for evaluation of hepatic CYP2D activity” (Frontiers in Pharmacology, 2024).

Data set [1] is described as follows: Metabolism of ^125I-BMQ in vivo: TLC analysis of radioactive products in bile. Further details: species or system mouse. The procedure: ^125I-BMQ was prepared to a specific radioactivity of 10 MBq/mL by adding saline and injected via tail vein into three mice (2.0 MBq/200 µL/mouse). […] Radioactive products in the bile were analyzed by TLC using chloroform/acetic acid/H2O at a ratio of 60:40:1. Bile was spotted directly onto the TLC plate.

Data set [2] has as its system ^125I-BMQ-metabolizing CYP isoenzymes (pooled MLMs). Nature of the data set: Inhibition of ^125I-BMQ metabolism by specific CYP inhibitors and mequitazine in pooled MLMs. To be noted: for percentage of metabolites produced from ^125I-BMQ: 37°C, 15 min; for inhibition at 15 min, 10 µM: mouse, pooled mouse liver microsomes, pH 7.4, probe ^125I-BMQ. The procedure: These specific inhibitors were used to identify the CYPs involved in the biotransformation of ^125I-BMQ. The inhibitors and mequitazine (self-inhibitor) were dissolved at a concentration of 10 μM (0.8% [v/v] final concentration DMSO).
Samples were incubated at 37°C for 15 min with gentle shaking, and the reaction was stopped by addition of 100 µL of ethanol and centrifugation at 18,000 g for 5 min. The final supernatant was analyzed by TLC using methanol/acetic acid at a 100:1 ratio. The percentages of ^125I-BMQ metabolites in each sample were then calculated (n = 3).

Data set [3] concerns CYP (pooled mouse liver microsomes, MLMs). Briefly: NADPH-mediated metabolism of ^125I-BMQ in pooled mouse liver microsomes, TLC analysis. Format: in vitro ADME. To be noted: 37°C, increase with reaction time. How it is done:
Animal studies were approved by the Animal Care Committee at Kanazawa University (AP-173851) and conducted in accordance with international standards for animal welfare and institutional guidelines. For preparation of pooled mouse liver microsomes (MLMs), three 6-week-old male ddY mice (Japan SLC, Tokyo, Japan) were euthanized under anesthesia using isoflurane. The liver of each mouse was removed and weighed. After adding 3 mL of Krebs-Ringer’s phosphate buffer (pH 7.4) per gram of liver, the livers were pooled and homogenized using an ultrasonic homogenizer (SONIFIER250, Branson, MO, United States). The homogenate was centrifuged for 20 min at 9,000 g, and the supernatant was centrifuged for 60 min at 100,500 g. […] The resulting precipitate was obtained as microsomes, and the protein content was determined according to the bicinchoninic acid method ([Smith et al., 1985]). […]
To analyze CYP-mediated metabolism of ^125I-BMQ, nicotinamide adenine dinucleotide phosphate (NADPH) was used as an energy source for CYP. […] The samples were then centrifuged at 18,000 g for 5 min, and the supernatant of each sample was analyzed by thin layer chromatography (TLC). […] After development and complete drying, the TLC plates were cut into 21 fractions, and the radioactivity associated with each fraction was measured using a γ-ray counter (AccuFLEX γ 7000, Aloka, Tokyo, Japan). […]

Data set [4] in a line: Biological distribution of ^125I-BMQ in normal mice. Format: in vivo, mouse. The conditions noted are these: tail vein injection. How it is done:
^125I-BMQ was prepared to a specific radioactivity of 185 kBq/mL by adding saline. A total of 20 fasting 6-week-old male ddY mice were injected with ^125I-BMQ into the tail vein (18.5 kBq/100 µL/mouse), and after 2, 10, 30, 60, and 120 min, four mice each were euthanized under isoflurane, and blood, brain, thyroid, lung, heart, liver, gallbladder, stomach, pancreas, spleen, intestine, kidney, and urine tissue were collected. The tissue was weighted and the radioactivity was measured using a γ-ray counter to calculate the injected dose percent (%ID) or injected dose percent per gram of tissue (%ID/g).

Data set [5] can be described thus: Preliminary study: effect of intraperitoneal paroxetine on hepatobiliary excretion of ^99mTc-PMT, SPECT dynamic imaging. The conditions noted are these: CYP2D-inhibited mice, probe ^99mTc-PMT. How it is done: SPECT imaging of ^123I-BMQ was performed to visualize the accumulation of radioactive metabolite for the purpose of assessing CYP2D activity. […] In a preliminary study, the effect of intraperitoneal administration of paroxetine on hepatobiliary excretion was investigated.

Setting [6] is: mouse bile after iv injection, gallbladder removed, TLC.
Setting [7] is: NADPH [+], pooled MLMs, inhibitor 10 μM.

For `[125I]c1ccc(C[N+]23CCC(CC2)C(CN2c4ccccc4Sc4ccccc42)C3)cc1` (stereo not drawn) [^125I-BMQ, ^125I-4-iodobenzylmequitazine], the “radioactivity in the bile that was radioactive metabolite” value in data set [1] (gallbladder removed 60 min after the mice were injected) is listed as “more than 90%”. In addition, in data set [1] (setting [6]), the “^125I-BMQ (parent) in bile” value was “no ^125I-BMQ was detected” and the “percentage of metabolites of ^125I-BMQ in bile” value was above 90%. Moreover, the percentage of metabolites in data set [2] (NADPH [−], pooled MLMs, no inhibitor) was determined as 2.64%. The “percentage of radioactive metabolite” value in data set [3] was 3%–25%. Further, in data set [4] (2 min), the “Biological distribution, Blood” value came out at 1.71 ± 0.40 %ID/g; the “Biological distribution, Brain” value came to 0.12 ± 0.02 %ID/g; the “Biological distribution, Gall bladder” value came out at 4.16 ± 4.04 %ID/g; the “Biological distribution, Heart” value is listed as 0.78 ± 0.14 %ID/g. For the same compound, in data set [4] (2 min), the “Biological distribution, Intestines” value came to 1.52 ± 0.17 %ID/organ; the “Biological distribution, Kidney” value was 8.04 ± 0.39 %ID/g; the “Biological distribution, Liver” value was 10.58 ± 0.30 %ID/g; the “Biological distribution, Lung” value is reported as 0.77 ± 0.12 %ID/g. Also, in data set [4] (2 min), the “Biological distribution, Pancreas” value is listed as 0.51 ± 0.05 %ID/g; the “Biological distribution, Spleen” value is recorded as 0.46 ± 0.11 %ID/g; the “Biological distribution, Stomach” value was determined as 0.14 ± 0.01 %ID/organ; the “Biological distribution, Thyroid” value turned out to be 1.19 ± 0.23 %ID/g. For the same compound, in data set [4] (2 min), the “Biological distribution, Urine” value is given as 0.10 ± 0.10 %ID/organ. For the same compound, in data set [4] (10 min), the “Biological distribution, Blood” value is 0.32 ± 0.07 %ID/g; the “Biological distribution, Brain” value came to 0.08 ± 0.02 %ID/g; the “Biological distribution, Gall bladder” value is on record as 13.28 ± 14.03 %ID/g; the “Biological distribution, Heart” value amounted to 0.47 ± 0.11 %ID/g. Further, in data set [4] (10 min), the “Biological distribution, Intestines” value came to 3.90 ± 1.55 %ID/organ; the “Biological distribution, Kidney” value worked out at 7.84 ± 0.50 %ID/g; the “Biological distribution, Liver” value is on record as 10.55 ± 0.48 %ID/g; the “Biological distribution, Lung” value came out at 0.46 ± 0.28 %ID/g. In addition, in data set [4] (10 min), the “Biological distribution, Pancreas” value is on record as 0.41 ± 0.03 %ID/g; the “Biological distribution, Spleen” value is listed as 0.26 ± 0.01 %ID/g; the “Biological distribution, Stomach” value was determined as 1.33 ± 1.08 %ID/organ; the “Biological distribution, Thyroid” value was found to be 0.57 ± 0.15 %ID/g. The “Biological distribution, Urine” value in data set [4] (10 min) worked out at 0.06 ± 0.07 %ID/organ. Besides, in data set [4] (30 min), the “Biological distribution, Blood” value was 0.30 ± 0.16 %ID/g; the “Biological distribution, Brain” value stood at 0.14 ± 0.10 %ID/g; the “Biological distribution, Gall bladder” value is listed as 24.43 ± 6.95 %ID/g; the “Biological distribution, Heart” value came out at 0.52 ± 0.23 %ID/g. In data set [4] (30 min), the “Biological distribution, Intestines” value is given as 7.06 ± 1.89 %ID/organ; the “Biological distribution, Kidney” value is given as 8.70 ± 1.50 %ID/g; the “Biological distribution, Liver” value is recorded as 8.45 ± 0.99 %ID/g; the “Biological distribution, Lung” value is 0.40 ± 0.20 %ID/g. In addition, in data set [4] (30 min), the “Biological distribution, Pancreas” value was found to be 0.63 ± 0.25 %ID/g; the “Biological distribution, Spleen” value came to 0.24 ± 0.08 %ID/g; the “Biological distribution, Stomach” value stood at 0.42 ± 0.36 %ID/organ; the “Biological distribution, Thyroid” value amounted to 1.16 ± 0.60 %ID/g. Moreover, the “Biological distribution, Urine” value in data set [4] (30 min) is 0.30 ± 0.26 %ID/organ. Moreover, in data set [4] (60 min), the “Biological distribution, Blood” value is given as 0.11 ± 0.01 %ID/g; the “Biological distribution, Brain” value amounted to 0.05 ± 0.01 %ID/g; the “Biological distribution, Gall bladder” value was determined as 23.28 ± 9.55 %ID/g; the “Biological distribution, Heart” value was 1.00 ± 0.13 %ID/g. Further, in data set [4] (60 min), the “Biological distribution, Intestines” value turned out to be 14.26 ± 1.26 %ID/organ; the “Biological distribution, Kidney” value was found to be 18.07 ± 2.42 %ID/g; the “Biological distribution, Liver” value was found to be 6.61 ± 0.90 %ID/g; the “Biological distribution, Lung” value came out at 0.55 ± 0.13 %ID/g. For the same compound, in data set [4] (60 min), the “Biological distribution, Pancreas” value is 0.84 ± 0.29 %ID/g; the “Biological distribution, Spleen” value is recorded as 0.86 ± 0.12 %ID/g; the “Biological distribution, Stomach” value is on record as 0.63 ± 0.41 %ID/organ; the “Biological distribution, Thyroid” value is 1.03 ± 0.21 %ID/g. Moreover, the “Biological distribution, Urine” value in data set [4] (60 min) was found to be 0.47 ± 0.55 %ID/organ. In data set [4] (120 min), the “Biological distribution, Blood” value was found to be 0.09 ± 0.01 %ID/g; the “Biological distribution, Brain” value is recorded as 0.05 ± 0.01 %ID/g; the “Biological distribution, Gall bladder” value is 28.93 ± 14.65 %ID/g; the “Biological distribution, Heart” value came out at 0.92 ± 0.11 %ID/g. Moreover, in data set [4] (120 min), the “Biological distribution, Intestines” value came to 16.36 ± 1.01 %ID/organ; the “Biological distribution, Kidney” value is listed as 16.10 ± 2.91 %ID/g; the “Biological distribution, Liver” value is listed as 6.02 ± 1.23 %ID/g; the “Biological distribution, Lung” value was found to be 0.36 ± 0.06 %ID/g. Also, in data set [4] (120 min), the “Biological distribution, Pancreas” value stood at 0.73 ± 0.26 %ID/g; the “Biological distribution, Spleen” value is on record as 0.83 ± 0.32 %ID/g; the “Biological distribution, Stomach” value was determined as 0.44 ± 0.07 %ID/organ; the “Biological distribution, Thyroid” value is reported as 1.14 ± 0.08 %ID/g. Moreover, the “Biological distribution, Urine” value in data set [4] (120 min) stood at 0.11 ± 0.01 %ID/organ.

Turning to `CC(=O)N1CCN(c2ccc(OCC3COC(Cn4ccnc4)(c4ccc(Cl)cc4Cl)O3)cc2)CC1` (stereo not drawn) [ketoconazole], the “percentage of ^125I-BMQ compared with NADPH [+]” value in data set [2] (setting [7]) was “slightly lower, but not significantly”.

With `Fc1ccc([C@@H]2CCNC[C@H]2COc2ccc3c(c2)OCO3)cc1` [paroxetine], the “percentage of metabolites produced from ^125I-BMQ” value (“percentage of metabolites produced” below) in data set [2] (setting [7]) was 12.5%. In data set [2], this compound yielded an inhibition at 15 min, 10 µM of 42%. The “effect on biliary excretory function” value in data set [5] is listed as “did not affect the biliary excretory function itself”.

Consider `c1ccc2c(c1)Sc1ccccc1N2CC1CN2CCC1CC2` (racemic) [mequitazine, 10-[(3RS)-1-azabicyclo [2.2.2]oct-3-ylmethyl]-10H-phenothiazine], for which the “percentage of metabolites produced” value in data set [2] (setting [7]) worked out at 1.34%. Also, the inhibition at 15 min, 10 µM in data set [2] came to 94%.

For `C=C[C@H]1C[N@@]2CC[C@H]1C[C@@H]2[C@@H](O)c1ccnc2ccc(OC)cc12` [quinidine], the “percentage of metabolites produced” value in data set [2] (setting [7]) stood at 4.47%. This compound registered an inhibition at 15 min, 10 µM in data set [2] of 80%.
